Legend:
[1] = test system: Collagen Induced Arthritis (CIA) mouse model; assay: Collagen Induced Arthritis (CIA) mouse model with implanted osmotic pump releasing MDP; assay type: in vivo, DBA/1J mice
Procedure: (A) illustrates the subcutaneous implantation of an osmotic pump loaded with 200 µl of 5 mg/ml MDP and released at a rate of 0.25μ1/hr onto the back of a mouse.
DBA/1J mice were induced to develop arthritis by immunization with an emulsion of complete Freund's adjuvant and type II collagen, and each mouse also carried an implanted pump as described in FIG. 5 that releases either PBS or MDP at 0.25 μl/hr.

[2] = Blood MP level after oral amoxicillin, competitive ELISA using 2E7; assay type: in vivo, mice; details: 100 mg/kg oral at 12-h intervals, 4 h after each feeding
Procedure: Amoxicillin was administered orally to 50 mice at 12-h intervals and three mice were sacrificed every 4 h to collect blood for peptidoglycan quantification by ELISA. […] Serial blood samples were taken. Time for blood draw and IV injection are indicated.
The MP level in serum was determined by competitive ELISA using an example of the antibody of the present disclosure, i.e. 2E7.

Staphylococcus aureus = assay: MPs in culture supernatant with or without amoxicillin, competitive ELISA using 2E7; assay type: cell-based; details: 40 μg per ml amoxicillin added at OD600=1.5
Procedure: (§1) The standard curve was used to determine the peptidoglycan concentration in a sample. […] Both bacteria were grown to OD600=1.5. Each culture was divided into two, and one treated with 40 μg/ml amoxicillin (Amx) and the other untreated. Aliquots were collected at the indicated times and the amount of MPs in the supernatant was determined by competitive ELISA. […] After removing unbound antibodies by PBS washes, the cells were incubated with a FITC-labeled anti-mouse IgG Ab before fluorescence microscopic examination.
(§2) For this test, Gram-positive bacterium Staphylococcus aureus, which has a thick peptidoglycan layer, and Gram-negative Escherichia coli, which has a thin peptidoglycan layer, were selected and grown in the presence or absence of amoxicillin. The culture was grown to a density of OD600=1.5 and then divided into two equal aliquots. To one aliquot, amoxicillin was added to a final concentration of 40 μg per ml, and to the other aliquot, no drug was added. Both cultures were allowed to continue to grow. Aliquots of cultures were collected at timed intervals and cells were removed by centrifugation. The amount of MPs in the supernatant was determined by competitive ELISA using 2E7.

Escherichia coli = assay: as above; assay type: cell-based; details: 40 μg per ml amoxicillin added at OD600=1.5
Procedure: as §1, §2

Structure (SMILES)	clinical paw scores ([1]; increase in MDP concentration, time dependent, n=4)	development of rheumatoid arthritis ([1]; pump releasing MDP at 0.25 μl/hr vs PBS)	increase in the blood MP level [2]	molecules in culture medium that inhibit 2E7 binding to MDP (Staphylococcus aureus)	molecules in culture medium that inhibit 2E7 binding to MDP (Escherichia coli)
CC(=O)N[C@@H]1[C@@H](O[C@H](C)C(=O)N[C@@H](C)C(=O)N[C@H](CCC(=O)O)C(N)=O)[C@H](O)[C@@H](CO)O[C@H]1O [MDP]	increased clinical paw scores	promoted the development of rheumatoid arthritis	–	–	–
CC1(C)S[C@@H]2[C@H](NC(=O)[C@H](N)c3ccc(O)cc3)C(=O)N2[C@H]1C(=O)O [amoxicillin]	–	–	20-60%	sharp increase	sharp increase
